# Key:
# [1] = GSH reactivity in PBS buffer at pH 8 assessed as second-order reaction rate constants upto 200 uM by DTNB assay; type: ADME; details: pH 8, 200 µM
# [2] = GSH reactivity in PBS buffer at pH 7.4 assessed as half life; type: ADME
# [3] = Cytotoxicity against African green monkey Vero E6 cells; type: toxicity, cell-based, Vero C1008; details: chlorocebus sabaeus
# [4] = biological target: Replicase polyprotein 1ab (Severe acute respiratory syndrome coronavirus 2, UniProt P0DTD1); test: Inhibition of SARS-CoV-2 cysteine protease main protease
# [5] = biological target: T1, Tyrosine-protein kinase BTK (Homo sapiens, UniProt Q06187); details: A-431, dose 1.0 µM
# T1 sequence (Q06187 whole entry, the tested form may be a part): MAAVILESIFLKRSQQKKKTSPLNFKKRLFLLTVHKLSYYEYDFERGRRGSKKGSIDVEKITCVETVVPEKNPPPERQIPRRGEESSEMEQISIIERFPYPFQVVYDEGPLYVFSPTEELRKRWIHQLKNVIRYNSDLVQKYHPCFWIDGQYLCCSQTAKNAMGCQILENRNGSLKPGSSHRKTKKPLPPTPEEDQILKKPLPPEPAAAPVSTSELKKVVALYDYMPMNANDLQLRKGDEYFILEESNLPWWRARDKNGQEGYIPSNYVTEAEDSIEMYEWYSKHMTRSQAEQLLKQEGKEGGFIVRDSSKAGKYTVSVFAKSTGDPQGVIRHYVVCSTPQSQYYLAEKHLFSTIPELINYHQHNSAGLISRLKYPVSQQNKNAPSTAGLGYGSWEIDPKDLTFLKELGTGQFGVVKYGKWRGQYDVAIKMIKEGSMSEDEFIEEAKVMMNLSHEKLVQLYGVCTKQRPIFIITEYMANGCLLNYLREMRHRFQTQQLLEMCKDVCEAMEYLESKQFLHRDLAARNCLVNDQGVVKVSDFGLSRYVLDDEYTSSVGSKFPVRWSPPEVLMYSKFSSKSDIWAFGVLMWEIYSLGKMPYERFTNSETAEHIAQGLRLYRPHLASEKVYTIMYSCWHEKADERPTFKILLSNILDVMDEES
# Carbonic anhydrase 2 [6] = biological target: T2, Carbonic anhydrase 2 (Homo sapiens, UniProt P00918); test: Rate of protein modification at carbonic anhydrase II (unknown origin) fragment assessed as inhibition constant
# Carbonic anhydrase 2 [7] = biological target: T2, Carbonic anhydrase 2; test: Binding affinity to carbonic anhydrase II (unknown origin) fragment assessed as rate of protein modification by measuring inactivation rate constant (Kinact)
# [8] = Cysteine-reactive in peptide assessed as half life using fluorogenic monochlorobimane/zinc complex by measuring fluorescence intensity; type: ADME; details: cysteine-containing peptide
# [9] = biological target: T3, Tyrosine-protein kinase ABL1 (Homo sapiens, UniProt P00519); test: Inhibition of wild type N-terminal His tagged ABL kinase (unknown origin) using fluorescence-labelled substrate by off-chip mobility shift assay
# T3 sequence (P00519 whole entry): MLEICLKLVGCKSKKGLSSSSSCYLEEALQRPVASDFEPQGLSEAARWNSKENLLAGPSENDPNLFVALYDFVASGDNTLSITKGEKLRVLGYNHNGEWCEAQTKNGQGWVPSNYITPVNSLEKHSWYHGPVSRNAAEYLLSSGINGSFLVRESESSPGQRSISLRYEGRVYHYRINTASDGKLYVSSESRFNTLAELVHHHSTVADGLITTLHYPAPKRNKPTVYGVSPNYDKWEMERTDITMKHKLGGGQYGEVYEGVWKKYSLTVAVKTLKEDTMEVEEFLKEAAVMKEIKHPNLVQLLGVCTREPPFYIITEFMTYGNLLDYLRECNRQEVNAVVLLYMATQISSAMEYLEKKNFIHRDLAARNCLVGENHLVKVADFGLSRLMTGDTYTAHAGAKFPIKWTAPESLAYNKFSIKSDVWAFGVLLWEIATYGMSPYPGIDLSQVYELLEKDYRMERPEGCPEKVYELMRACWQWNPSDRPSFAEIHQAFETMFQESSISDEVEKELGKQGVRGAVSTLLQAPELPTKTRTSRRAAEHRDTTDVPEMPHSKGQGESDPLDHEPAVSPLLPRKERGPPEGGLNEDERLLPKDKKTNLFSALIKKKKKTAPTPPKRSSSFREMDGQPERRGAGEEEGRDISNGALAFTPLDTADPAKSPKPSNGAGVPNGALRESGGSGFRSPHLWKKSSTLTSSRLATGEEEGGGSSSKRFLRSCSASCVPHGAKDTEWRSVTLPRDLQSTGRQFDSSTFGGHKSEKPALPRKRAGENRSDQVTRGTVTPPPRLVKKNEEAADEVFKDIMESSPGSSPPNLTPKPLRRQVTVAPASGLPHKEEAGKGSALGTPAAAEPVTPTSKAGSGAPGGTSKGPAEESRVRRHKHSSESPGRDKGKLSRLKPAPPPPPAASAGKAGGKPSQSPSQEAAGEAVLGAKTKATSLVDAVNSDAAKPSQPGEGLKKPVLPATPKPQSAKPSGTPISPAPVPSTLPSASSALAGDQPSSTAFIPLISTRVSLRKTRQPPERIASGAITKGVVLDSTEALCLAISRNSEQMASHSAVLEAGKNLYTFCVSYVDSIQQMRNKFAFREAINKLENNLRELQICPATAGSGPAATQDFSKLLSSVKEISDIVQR
# [10] = biological target: T3, Tyrosine-protein kinase ABL1; test: Inhibition of recombinant ABL kinase (unknown origin) assessed as inactivation rate constant (Kinact)
# [11] = biological target: T3, Tyrosine-protein kinase ABL1; test: Inhibition of recombinant ABL kinase (unknown origin) assessed as inhibition constant
# [12] = Reactivity rate at cyclic sulfonamide assessed as rate constant by CSA sulfenic-acid model; type: physicochemical
# [13] = Reactivity of SuTEx assessed as aryl-LG modifications by measuring half life by HLPC analysis; type: physicochemical
# [14] = biological target: T4, Chromobox protein homolog 8 (Homo sapiens) (UniProt Q9HC52); test: Binding affinity to CBX8 (unknown origin) assessed as rate constant of covalent modification (Kinact)
# T4 sequence (whole entry): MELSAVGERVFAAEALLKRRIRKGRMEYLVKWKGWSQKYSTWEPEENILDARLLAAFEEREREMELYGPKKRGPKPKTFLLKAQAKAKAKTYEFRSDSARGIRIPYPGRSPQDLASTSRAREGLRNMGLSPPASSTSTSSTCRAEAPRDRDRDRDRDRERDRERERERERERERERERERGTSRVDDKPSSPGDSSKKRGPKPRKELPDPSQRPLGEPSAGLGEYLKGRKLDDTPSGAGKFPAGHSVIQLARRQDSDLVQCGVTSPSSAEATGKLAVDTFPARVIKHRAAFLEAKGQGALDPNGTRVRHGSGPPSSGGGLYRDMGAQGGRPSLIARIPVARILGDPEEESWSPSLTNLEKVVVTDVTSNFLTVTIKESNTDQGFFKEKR
# [15] = Reactivity of SuTEx assessed as aryl-AG modifications by measuring half life by HLPC analysis; type: physicochemical
# [16] = Toxicity in ip dosed mature male rabbit assessed as death; type: organism-based, Oryctolagus cuniculus; details: in vivo
# [17] = biological target: E3 ubiquitin-protein ligase Mdm2 (Homo sapiens) (UniProt Q00987); test: Binding affinity to human HDM2 assessed as second-order rate constant (Kinact/Kd) ratio
# Chain of E3 ubiquitin-protein ligase Mdm2 (Homo sapiens) (Q00987 whole entry, looked up): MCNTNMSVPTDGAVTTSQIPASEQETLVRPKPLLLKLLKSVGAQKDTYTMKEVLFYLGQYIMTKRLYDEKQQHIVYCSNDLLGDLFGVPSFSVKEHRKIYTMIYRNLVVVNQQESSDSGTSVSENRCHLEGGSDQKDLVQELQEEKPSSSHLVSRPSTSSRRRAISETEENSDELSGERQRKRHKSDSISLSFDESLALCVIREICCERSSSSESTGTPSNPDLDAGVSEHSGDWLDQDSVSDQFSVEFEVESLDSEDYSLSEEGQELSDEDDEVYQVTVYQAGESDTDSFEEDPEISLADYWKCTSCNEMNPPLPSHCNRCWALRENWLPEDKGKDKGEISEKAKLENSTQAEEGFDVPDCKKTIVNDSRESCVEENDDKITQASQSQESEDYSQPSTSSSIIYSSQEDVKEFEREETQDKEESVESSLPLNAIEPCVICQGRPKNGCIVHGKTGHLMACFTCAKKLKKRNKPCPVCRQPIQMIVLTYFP
# [18] = biological target: E3 ubiquitin-protein ligase Mdm2 (Homo sapiens) (UniProt Q00987); test: Binding affinity to human HDM2 assessed as rate constant of covalent modification (Kinact)
# Homo sapiens [19] = species on record: Homo sapiens; test: Inhibition of wild type Hsp90 (unknown origin) assessed as inactivation rate constant (Kinact)
# Homo sapiens [20] = species on record: Homo sapiens; test: Binding affinity to wild type Hsp90 (unknown origin) assessed as rate of modification half life
# [21] = biological target: NAD-dependent protein deacylase sirtuin-5, mitochondrial (Homo sapiens) (UniProt Q9NXA8); test: Inhibition of SIRT5 (unknown origin) assessed as reaction rate Kinact/Ki ratio
# Chain of NAD-dependent protein deacylase sirtuin-5, mitochondrial (Homo sapiens) (Q9NXA8 37-310 limits assumed): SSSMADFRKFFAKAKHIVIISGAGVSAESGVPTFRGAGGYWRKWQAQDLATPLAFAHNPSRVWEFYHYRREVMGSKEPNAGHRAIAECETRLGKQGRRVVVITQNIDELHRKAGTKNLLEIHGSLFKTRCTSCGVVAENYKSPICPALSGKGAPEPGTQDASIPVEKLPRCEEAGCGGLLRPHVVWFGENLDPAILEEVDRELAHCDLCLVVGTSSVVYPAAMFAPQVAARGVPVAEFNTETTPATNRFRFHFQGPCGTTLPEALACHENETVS
# [22] = biological target: NAD-dependent protein deacylase sirtuin-5, mitochondrial (Homo sapiens) (UniProt Q9NXA8); test: Inhibition of SIRT5 (unknown origin) assessed as inactivation rate constant (Kinact)
# [23] = biological target: T1, Tyrosine-protein kinase BTK; test: Binding affinity to BTK (unknown origin) assessed as inhibition constant
# [24] = biological target: T1, Tyrosine-protein kinase BTK
# Description: Binding affinity to BTK (unknown origin) assessed as inactivation rate constant (Kinact)
# [25] = Thiol reactivity of compound assessed as (Kinact/Ki) rate constant ratio; type: ADME
smiles,measurement,setting,value
O=C(COS(=O)(=O)Nc1ccccc1)NCc1ccccc1,K,[1],0.009 M⁻¹ s⁻¹
CN(C(=O)C12CC1C2)c1ccccc1 (centres undefined),half-life,[2],32.7 h
C[C@@H](NC(=O)[C@H](c1cccnc1)N(C(=O)C(Br)(Br)Br)c1ccc(-c2ccccc2)cc1)c1ccccc1,CC50,[3],5.48 µM
same,IC50,[4],0.08 µM
C#Cc1cccc(Oc2ccc(-c3nn(CCc4ccccc4N(C)C(=O)C45CC4C5)c4ncnc(N)c34)cc2)c1 (centres undefined),V0,[5],9.7 10^-5/s
same,half-life,[2],32.7 h
Nc1ncnc2c1ncn2[C@@H]1O[C@H](CN(CC[C@H](N)C(=O)O)S(=O)(=O)c2ccc(F)c([N+](=O)[O-])c2)[C@@H](O)[C@H]1O,half-life,[2],< 0.0333 h
NS(=O)(=O)c1ccc(CCNS(=O)(=O)c2ccc(S(=O)(=O)F)cc2)cc1,Ki,Carbonic anhydrase 2 [6],< 5 µM
same,Kinact,Carbonic anhydrase 2 [7],2.1 10^-5/s
CN(C)C/C=C/C(N)=O,half-life,[8],0.51 h
C#CCN(C)C(=O)c1cncc(-c2cnc3[nH]cc(-c4cc(C=O)c(C#C)cc4OC)c3c2)c1,IC50,[9],0.0028 µM
same,Kinact,[10],5.54 10^-3/s
same,Ki,[11],3.2 µM
C#CCCCC1CCC(=O)CC1=O (centres undefined),K,[12],10 M⁻¹ s⁻¹
O=S(=O)(c1ccc(F)cc1)n1cnc(-c2ccc(C(F)(F)F)cc2)n1,half-life,[13],0.0533 h
same,K,[14],2.9 10^-3/M/s
COc1ccc(-c2ncn(S(=O)(=O)c3ccc(OC)cc3)n2)cc1,half-life,[15],3.04 h
NS(=O)(=O)c1ccc(CCNC(=O)Cc2ccc(S(=O)(=O)F)cc2)cc1,Ki,Carbonic anhydrase 2 [6],< 5 µM
same,Kinact,Carbonic anhydrase 2 [7],0.36 10^-5/s
NS(=O)(=O)c1cccc(CNC(=O)c2ccc(S(=O)(=O)F)cc2)c1,Ki,Carbonic anhydrase 2 [6],< 5 µM
same,Kinact,Carbonic anhydrase 2 [7],12 10^-5/s
NC(=O)C(F)Cl (centres undefined),half-life,[8],4.4 h
same,half-life,[2],17 h
COc1cc(OC)cc(C(=O)C23CC2C3)c1 (centres undefined),half-life,[2],32.7 h
COc1cc(S(=O)(=O)F)ccc1-c1c[nH]c2ncc(-c3cncc(C(=O)N(C)C)c3)cc12,IC50,[9],0.073 µM
NS(=O)(=O)c1cccc(CNC(=O)Cc2ccc(S(=O)(=O)F)cc2)c1,Ki,Carbonic anhydrase 2 [6],< 5 µM
same,Kinact,Carbonic anhydrase 2 [7],0.73 10^-5/s
COc1ccc(-c2ncn(S(=O)(=O)c3ccc(F)cc3)n2)cc1,half-life,[13],0.237 h
O=C(CCl)NCc1ccccc1,K,[1],0.08 M⁻¹ s⁻¹
C#CCOCCOCCOc1cccc(N2CCN(C(=O)C(C)(F)Br)CC2)c1 (centres undefined),half-life,[2],> 167 h
O=C(NCCCCCCCCNC(=O)C(Cl)Cl)C(Cl)Cl,LD50,[16],10000 mg/kg
C#Cc1cc(OC)c(-c2ccc3nc(NC(=O)NCO)sc3c2)cc1C=O,Kinact,[10],1.27 10^-3/s
same,Ki,[11],0.013 µM
O=S(=O)(c1ccc(F)cc1)n1cnc(-c2ccccc2)n1,half-life,[13],0.108 h
same,Ratio,[17],8.4 10^2/M/s
same,Kinact,[18],4.8 10^-4/s
Nc1ncnc2c1nc(Sc1cc3c(cc1I)OCO3)n2C[C@H]1CCCN(Cc2cccc(S(=O)(=O)F)c2)C1,Kinact,Homo sapiens [19],2.17 10^-3/s
same,T1/2,Homo sapiens [20],5 min
C#CCOCCOCCOc1cccc(N2CCN(C(=O)CF)CC2)c1,half-life,[2],> 167 h
CS(=O)(=O)OCC(=O)NCc1ccccc1,K,[1],0.134 M⁻¹ s⁻¹
C#CCOCCOCCOc1cccc(N2CCN(C(=O)C(F)(F)Br)CC2)c1,half-life,[2],33.4 h
Cc1ccc(S(=O)(=O)OCC(=O)NCc2ccccc2)cc1,K,[1],0.161 M⁻¹ s⁻¹
C#CCNC(=O)c1ccc(S(=O)(=O)N[C@@H](CCCCNC(=O)c2cncc(OS(=O)(=O)F)c2)C(=O)N[C@@H](CCCNC(=N)N)C(=O)NC2CCC2)cc1,Ratio,[21],2.9 M⁻¹ s⁻¹
same,Kinact,[22],2.83 10^-4/s
NS(=O)(=O)c1ccc(CCNC(=O)c2cccc(S(=O)(=O)F)c2)cc1,Ki,Carbonic anhydrase 2 [6],< 5 µM
same,Kinact,Carbonic anhydrase 2 [7],0.51 10^-5/s
CC(NS(=O)(=O)c1cccc(S(=O)(=O)F)c1)c1cccc(S(N)(=O)=O)c1 (centres undefined),Ki,Carbonic anhydrase 2 [6],12 µM
same,Kinact,Carbonic anhydrase 2 [7],3.9 10^-5/s
C=CC(=O)NCc1ccccc1,K,[1],0.003 M⁻¹ s⁻¹
CC(NS(=O)(=O)c1ccc(S(=O)(=O)F)cc1)c1cccc(S(N)(=O)=O)c1 (centres undefined),Ki,Carbonic anhydrase 2 [6],< 5 µM
same,Kinact,Carbonic anhydrase 2 [7],1.7 10^-5/s
CC(C)(C)OC(=O)/C=C/C(=O)N1CCC[C@@H](n2nc(-c3ccc(Oc4ccccc4)cc3)c3c(N)ncnc32)C1,Ki,[23],0.221 µM
same,Kinact,[24],7.62 10^-3/s
same,kinact/KI,[25],35000 M⁻¹ s⁻¹

# From ChEMBL document CHEMBL5512664, “Emerging and Re-emerging Warheads for Targeted Covalent Inhibitors: An Update” (J Med Chem, 2024)
